Tested on: RA FLS
Assay: RA FLS scratch assay
Type: cell-based, human
Details: Syntenin-1 1000 ng/ml 24 h; SDC1-Ab 1:100, mTORi 1 μM, HIF1αi 2 μM; FIGS. 16J-K
Description: RA STs were fluorescently stained to authenticate the colocalization of Mitofusin (MFN2) (FIGS. 16A-B) and DRP1 (FIGS. 16C-D) expression on Vimentin^+ FLS in the presence or absence of DAPI, (n=3, original magnification×60 or 500). RA FLS were treated with Syntenin-1 (1000 ng/ml) for 0-60 min to detect Mitofusin-2 and DRP1 expression (FIG. 16E, n=3) and actin served as equal loading, (n=3). RA FLS were treated with Syntenin-1 (1000 ng/ml) in the presence or absence of HIF1αi (2 μM) for 6 h to determine transcription of IL-1β (FIG. 16F, n=6), IL-6 (FIG. 16G, n=5), IL-8 (FIG. 16H, n=5) and CCL2 (I, n=6) by real-time RT-PCR. […] The number of cells in the scratch area was counted and compared to the untreated control, (K, n=4). RA FLS were treated with PBS or Syntenin-1 (1000 ng/ml) in the presence or absence of SDC-1 Ab (SDCab: 1:100), IL-5R Ab (IL5Ra; 2 μg/ml), or PDZli (PDZ1; 10 μM), and/or HIF1αi (2 μM) or mTORi ([…]) for 6 h before quantifying transcription levels of VEGF (FIG. 16L, n=5) and Notch1, FGF2, CXCL1, CXCL5 (FIG. 16K or 16M, n=8 or 7). Data are presented as mean±SEM; significant differences were determined by the Mann-Whitney test, 2way ANOVA, or one-way ANOVA. *p<0.05, **p<0.01, ***p<0.001, ****p<0.0001.
RA FLS and HUVEC scratch assay. […] The number of cells in the scratch area was counted and compared to the untreated control.

## CO[C@H]1C[C@@H]2CC[C@@H](C)[C@@](O)(O2)C(=O)C(=O)N2CCCC[C@H]2C(=O)O[C@H]([C@H](C)C[C@@H]2CC[C@@H](OCCO)[C@H](OC)C2)CC(=O)[C@H](C)/C=C(\C)[C@@H](O)[C@@H](OC)C(=O)[C@H](C)C[C@H](C)/C=C/C=C/C=C/1C [mTORi, Everolimus]
  Syntenin-1-driven RA FLS migration: intercepted
